According to US20190185518A9, “WARHEAD-CONTAINING PEPTIDOMIMETIC MACROCYCLES AS MODULATORS OF BFL-1” (AILERON Therapeutics, Inc., priority 2017, published 2019):
Positions of bridges follow the written chain, without caps; N, C: chain ends. Non-standard residues stand in square brackets, D forms with d. Residues, ends and D or L forms follow the SMILES beside them. Phe(4-CF3) = N[C@@H](Cc1ccc(C(F)(F)F)cc1)C(=O)O; Bip = N[C@@H](Cc1ccc(-c2ccccc2)cc1)C(=O)O; Igl = N[C@H](C(=O)O)C1Cc2ccccc2C1; R8 = C=CCCCCCC[C@@](C)(N)C(=O)O; Cha = N[C@@H](CC1CCCCC1)C(=O)O; Cit = NC(=O)NCCC[C@H](N)C(=O)O; S5 = C=CCCC[C@](C)(N)C(=O)O; Aib = CC(C)(N)C(=O)O

Molecular target: Bcl-2 (Homo sapiens, UniProt P10415)
Sequence (P10415 whole entry, species assumed): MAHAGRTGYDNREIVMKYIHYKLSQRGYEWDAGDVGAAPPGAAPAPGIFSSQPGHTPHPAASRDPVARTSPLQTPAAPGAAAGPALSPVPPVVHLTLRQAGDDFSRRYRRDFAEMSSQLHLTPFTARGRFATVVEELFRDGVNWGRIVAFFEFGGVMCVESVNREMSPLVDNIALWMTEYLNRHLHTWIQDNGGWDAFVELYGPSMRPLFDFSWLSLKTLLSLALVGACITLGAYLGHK
Assay: Ki determination for Bcl-2 (BCL-2 family binding spectrum)
Settings: read-out: Ki BCL-2
Excerpt: To assess the binding and affinity of compounds that antagonize the interaction between a peptide and an acceptor protein, a fluorescence polarization assay (FPA) utilizing a fluoresceinated peptidomimetic macrocycle derived from a peptidomimetic precursor sequence is used, for example. The FPA technique measures the molecular orientation and mobility using polarized light and fluorescent tracer. […] A compound that antagonizes the interaction between the fluoresceinated peptidomimetic macrocycle and an acceptor protein will be detected in a competitive binding FPA experiment.
For example, putative antagonist compounds (1 nM to 1 mM) and a fluoresceinated peptidomimetic macrocycle (25 nM) are incubated with the acceptor protein (50 nM) in binding buffer (140 mM NaCl, 50 mM Tris-HCL, pH 7.4) for 30 minutes at room temperature. Antagonist binding activity is measured, for example, by fluorescence polarization on a luminescence spectrophotometer (e.g. Perkin-Elmer LS50B). Kd values may be determined by nonlinear regression analysis using, for example, Graphpad Prism software (GraphPad Software, Inc., San Diego, Calif.).

SMILES	Ki
CC[C@H](C)[C@H](NC(C)=O)C(=O)N[C@@H](Cc1c[nH]c2ccccc12)C(=O)N[C@H](C(=O)N[C@@H](C)C(=O)N[C@@H](CCC(N)=O)C(=O)N[C@@H](C)C(=O)N[C@@H](CC(C)C)C(=O)N[C@@H](CCCNC(N)=O)C(=O)N[C@]1(C)CCCCCCC=CCCC[C@@](C)(C(=O)N[C@@H](Cc2ccc(O)cc2)C(=O)N[C@@H](Cc2ccc(O)cc2)C(=O)N[C@@H](C)C(N)=O)NC(=O)[C@H](CC(N)=O)NC(=O)[C@H](Cc2ccccc2)NC(=O)[C@H](C)NC(=O)[C@H](CC(=O)O)NC(=O)CNC(=O)[C@H]([C@@H](C)CC)NC1=O)[C@@H](C)CC [compound 1655] (Ac-IWIAQAL[Cit][R8]IGDAFN[S5]YYA-NH2; staple 9-16)	212 nM
CC[C@H](C)[C@H](NC(C)=O)C(=O)N[C@@H](Cc1c[nH]c2ccccc12)C(=O)N[C@@H](Cc1ccc(-c2ccccc2)cc1)C(=O)N[C@@H](C)C(=O)N[C@@H](CCC(N)=O)C(=O)N[C@@H](C)C(=O)N[C@@H](CC(C)C)C(=O)N[C@@H](CCCNC(=N)N)C(=O)N[C@]1(C)CCCCCCC=CCCC[C@@](C)(C(=O)N[C@@H](Cc2ccc(O)cc2)C(=O)N[C@@H](Cc2ccc(O)cc2)C(=O)N[C@@H](C)C(N)=O)NC(=O)[C@H](CC(N)=O)NC(=O)[C@H](Cc2ccccc2)NC(=O)[C@H](C)NC(=O)[C@H](CC(=O)O)NC(=O)CNC(=O)[C@H]([C@@H](C)CC)NC1=O [compound 1686] (Ac-IW[Bip]AQALR[R8]IGDAFN[S5]YYA-NH2; staple 9-16)	> 1000 nM
CC[C@H](C)[C@H](NC(C)=O)C(=O)N[C@@H](Cc1c[nH]c2ccccc12)C(=O)N[C@H](C(=O)N[C@@H](C)C(=O)N[C@@H](CCC(N)=O)C(=O)N[C@@H](C)C(=O)N[C@@H](CC1CCCCC1)C(=O)N[C@@H](CCCNC(=N)N)C(=O)N[C@]1(C)CCCCCCC=CCCC[C@@](C)(C(=O)N[C@@H](Cc2ccc(O)cc2)C(=O)N[C@@H](Cc2ccc(O)cc2)C(=O)N[C@@H](C)C(N)=O)NC(=O)[C@H](CC(N)=O)NC(=O)[C@H](Cc2ccccc2)NC(=O)[C@H](C)NC(=O)[C@H](CC(=O)O)NC(=O)CNC(=O)[C@H]([C@@H](C)CC)NC1=O)[C@@H](C)CC [compound 1687] (Ac-IWIAQA[Cha]R[R8]IGDAFN[S5]YYA-NH2; staple 9-16)	> 1000 nM
CC[C@H](C)[C@H](NC(C)=O)C(=O)N[C@@H](Cc1c[nH]c2ccccc12)C(=O)N[C@H](C(=O)N[C@@H](C)C(=O)N[C@@H](CCC(N)=O)C(=O)N[C@@H](C)C(=O)N[C@H](C(=O)N[C@@H](CCCNC(=N)N)C(=O)N[C@]1(C)CCCCCC/C=C\CCC[C@@](C)(C(=O)N[C@@H](Cc2ccc(O)cc2)C(=O)N[C@@H](Cc2ccc(O)cc2)C(=O)N[C@@H](C)C(N)=O)NC(=O)[C@H](CC(N)=O)NC(=O)[C@H](Cc2ccccc2)NC(=O)[C@H](C)NC(=O)[C@H](CC(=O)O)NC(=O)CNC(=O)[C@H]([C@@H](C)CC)NC1=O)C1Cc2ccccc2C1)[C@@H](C)CC [compound 1693] (Ac-IWIAQA[Igl]R[R8]IGDAFN[S5]YYA-NH2; staple (Z) 9-16)	> 1000 nM
CC[C@H](C)[C@H](NC(C)=O)C(=O)N[C@@H](Cc1c[nH]c2ccccc12)C(=O)N[C@H](C(=O)N[C@@H](C)C(=O)N[C@@H](CCC(N)=O)C(=O)N[C@@H](C)C(=O)N[C@@H](Cc1ccc(C(F)(F)F)cc1)C(=O)N[C@@H](CCCNC(=N)N)C(=O)N[C@]1(C)CCCCCCC=CCCC[C@@](C)(C(=O)N[C@@H](Cc2ccc(O)cc2)C(=O)N[C@@H](Cc2ccc(O)cc2)C(=O)N[C@@H](C)C(N)=O)NC(=O)[C@H](CC(N)=O)NC(=O)[C@H](Cc2ccccc2)NC(=O)[C@H](C)NC(=O)[C@H](CC(=O)O)NC(=O)CNC(=O)[C@H]([C@@H](C)CC)NC1=O)[C@@H](C)CC [compound 1694] (Ac-IWIAQA[Phe(4-CF3)]R[R8]IGDAFN[S5]YYA-NH2; staple 9-16)	> 1000 nM
CC[C@H](C)[C@H](NC(C)=O)C(=O)N[C@@H](Cc1c[nH]c2ccccc12)C(=O)N[C@H](C(=O)N[C@@H](C)C(=O)NC(C)(C)C(=O)N[C@@H](C)C(=O)N[C@@H](CC(C)C)C(=O)N[C@@H](CCCNC(=N)N)C(=O)N[C@]1(C)CCCCCCC=CCCC[C@@](C)(C(=O)N[C@@H](Cc2ccc(O)cc2)C(=O)N[C@@H](Cc2ccc(O)cc2)C(=O)N[C@@H](C)C(N)=O)NC(=O)[C@H](CC(N)=O)NC(=O)[C@H](Cc2ccccc2)NC(=O)[C@H](C)NC(=O)[C@H](CC(=O)O)NC(=O)CNC(=O)[C@H]([C@@H](C)CC)NC1=O)[C@@H](C)CC [compound 1708] (Ac-IWIA[Aib]ALR[R8]IGDAFN[S5]YYA-NH2; staple 9-16)	120 nM
CC[C@H](C)[C@H](NC(C)=O)C(=O)N[C@@H](Cc1c[nH]c2ccccc12)C(=O)N[C@H](C(=O)N[C@@H](C)C(=O)N[C@@H](C)C(=O)N[C@@H](C)C(=O)N[C@@H](CC(C)C)C(=O)N[C@@H](CCCCN)C(=O)N[C@]1(C)CCCCCCC=CCCC[C@@](C)(C(=O)N[C@@H](Cc2ccc(O)cc2)C(=O)N[C@@H](Cc2ccc(O)cc2)C(=O)N[C@@H](C)C(N)=O)NC(=O)[C@H](CC(N)=O)NC(=O)[C@H](Cc2ccccc2)NC(=O)[C@H](C)NC(=O)[C@H](CC(=O)O)NC(=O)CNC(=O)[C@H]([C@@H](C)CC)NC1=O)[C@@H](C)CC [compound 1737] (Ac-IWIAAALK[R8]IGDAFN[S5]YYA-NH2; staple 9-16)	25.6 nM
CC[C@H](C)[C@H](NC(C)=O)C(=O)N[C@@H](Cc1c[nH]c2ccccc12)C(=O)N[C@H](C(=O)N[C@@H](C)C(=O)N[C@@H](C)C(=O)N[C@@H](C)C(=O)N[C@@H](CC(C)C)C(=O)N[C@@H](CCCNC(=N)N)C(=O)N[C@]1(C)CCCCCCC=CCCC[C@@](C)(C(=O)N[C@@H](Cc2ccc(O)cc2)C(=O)N[C@@H](Cc2ccc(O)cc2)C(=O)N[C@@H](C)C(N)=O)NC(=O)[C@H](CC(N)=O)NC(=O)[C@H](Cc2ccccc2)NC(=O)[C@H](C)NC(=O)[C@H](CC(=O)O)NC(=O)[C@H](C(C)C)NC(=O)[C@H]([C@@H](C)CC)NC1=O)[C@@H](C)CC [compound 1739] (Ac-IWIAAALR[R8]IVDAFN[S5]YYA-NH2; staple 9-16)	120 nM
CC[C@H](C)[C@H](NC(C)=O)C(=O)N[C@@H](Cc1c[nH]c2ccccc12)C(=O)N[C@H](C(=O)N[C@@H](C)C(=O)N[C@@H](C)C(=O)N[C@@H](C)C(=O)N[C@@H](CC(C)C)C(=O)N[C@@H](CCCNC(=N)N)C(=O)N[C@]1(C)CCCCCCC=CCCC[C@@](C)(C(=O)N[C@@H](Cc2ccc(O)cc2)C(=O)N[C@@H](Cc2ccc(O)cc2)C(=O)N[C@@H](C)C(N)=O)NC(=O)[C@H](CC(N)=O)NC(=O)[C@H](Cc2ccccc2)NC(=O)[C@H](C)NC(=O)[C@H](CCC(=O)O)NC(=O)CNC(=O)[C@H]([C@@H](C)CC)NC1=O)[C@@H](C)CC [compound 1740] (Ac-IWIAAALR[R8]IGEAFN[S5]YYA-NH2; staple 9-16)	142 nM
CC[C@H](C)[C@H](NC(C)=O)C(=O)N[C@@H](Cc1c[nH]c2ccccc12)C(=O)N[C@H](C(=O)N[C@@H](C)C(=O)N[C@@H](C)C(=O)N[C@@H](C)C(=O)N[C@@H](CC(C)C)C(=O)N[C@@H](CCCNC(=N)N)C(=O)N[C@]1(C)CCCCCCC=CCCC[C@@](C)(C(=O)N[C@@H](CC(C)C)C(=O)N[C@@H](Cc2ccc(O)cc2)C(=O)N[C@@H](C)C(N)=O)NC(=O)[C@H](CC(N)=O)NC(=O)[C@H](Cc2ccccc2)NC(=O)[C@H](C)NC(=O)[C@H](CC(=O)O)NC(=O)CNC(=O)[C@H]([C@@H](C)CC)NC1=O)[C@@H](C)CC [compound 1753] (Ac-IWIAAALR[R8]IGDAFN[S5]LYA-NH2; staple 9-16)	125 nM
CC[C@H](C)[C@H](NC(C)=O)C(=O)N[C@@H](Cc1c[nH]c2ccccc12)C(=O)N[C@H](C(=O)N[C@@H](C)C(=O)N[C@@H](C)C(=O)N[C@@H](C)C(=O)N[C@@H](CC(C)C)C(=O)N[C@@H](CCCNC(=N)N)C(=O)N[C@]1(C)CCCCCCC=CCCC[C@@](C)(C(=O)N[C@@H](Cc2ccc(O)cc2)C(=O)N[C@@H](Cc2ccc(O)cc2)C(=O)N[C@@H](CCCNC(=N)N)C(N)=O)NC(=O)[C@H](CC(N)=O)NC(=O)[C@H](Cc2ccccc2)NC(=O)[C@H](C)NC(=O)[C@H](CC(=O)O)NC(=O)CNC(=O)[C@H]([C@@H](C)CC)NC1=O)[C@@H](C)CC [compound 1765] (Ac-IWIAAALR[R8]IGDAFN[S5]YYR-NH2; staple 9-16)	142 nM
CC[C@H](C)[C@H](NC(C)=O)C(=O)N[C@]1(C)CCCCCCC=CCCCC2(CCCC=CCCCCCC[C@@](C)(C(=O)N[C@@H](Cc3ccc(O)cc3)C(=O)N[C@@H](Cc3ccc(O)cc3)C(=O)N[C@@H](C)C(N)=O)NC(=O)[C@H](CC(N)=O)NC(=O)[C@H](Cc3ccccc3)NC(=O)[C@H](CCC(=O)O)NC(=O)[C@H](CC(=O)O)NC(=O)CNC(=O)[C@H]([C@@H](C)CC)NC2=O)NC(=O)[C@H](CCCNC(=N)N)NC(=O)[C@H](CC(C)C)NC(=O)[C@H](C)NC(=O)[C@H](CCC(N)=O)NC(=O)[C@H](C)NC(=O)[C@H]([C@@H](C)CC)NC1=O (some centres unmarked) [compound 1782]	22 nM

Molecular target: Mcl-1 (Homo sapiens, UniProt Q07820)
Sequence (Q07820 whole entry, species assumed): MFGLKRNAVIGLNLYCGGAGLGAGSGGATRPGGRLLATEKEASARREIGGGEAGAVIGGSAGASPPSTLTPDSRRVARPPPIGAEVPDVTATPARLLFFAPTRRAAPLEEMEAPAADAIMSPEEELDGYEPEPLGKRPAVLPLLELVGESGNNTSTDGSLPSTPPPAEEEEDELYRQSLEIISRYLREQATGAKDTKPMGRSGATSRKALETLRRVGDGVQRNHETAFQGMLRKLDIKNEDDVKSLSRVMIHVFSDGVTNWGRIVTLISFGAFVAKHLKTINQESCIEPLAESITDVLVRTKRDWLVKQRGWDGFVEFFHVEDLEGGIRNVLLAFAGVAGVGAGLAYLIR
Assay: Ki determination for Mcl-1 (BCL-2 family binding spectrum)
Settings: read-out: Ki MCL-1
Method in brief: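 Competitive fluorescence polarization assay in which compounds displace a fluoresceinated peptidomimetic macrocycle tracer from Mcl-1. Affinity constants were obtained by nonlinear regression.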

SMILES	Ki
CC[C@H](C)[C@H](NC(C)=O)C(=O)N[C@@H](Cc1c[nH]c2ccccc12)C(=O)N[C@H](C(=O)N[C@@H](C)C(=O)N[C@@H](CCC(N)=O)C(=O)N[C@@H](C)C(=O)N[C@@H](CC(C)C)C(=O)N[C@@H](CCCNC(N)=O)C(=O)N[C@]1(C)CCCCCCC=CCCC[C@@](C)(C(=O)N[C@@H](Cc2ccc(O)cc2)C(=O)N[C@@H](Cc2ccc(O)cc2)C(=O)N[C@@H](C)C(N)=O)NC(=O)[C@H](CC(N)=O)NC(=O)[C@H](Cc2ccccc2)NC(=O)[C@H](C)NC(=O)[C@H](CC(=O)O)NC(=O)CNC(=O)[C@H]([C@@H](C)CC)NC1=O)[C@@H](C)CC [compound 1655] (Ac-IWIAQAL[Cit][R8]IGDAFN[S5]YYA-NH2; staple 9-16)	7.5 nM
CC[C@H](C)[C@H](NC(C)=O)C(=O)N[C@@H](Cc1c[nH]c2ccccc12)C(=O)N[C@@H](Cc1ccc(-c2ccccc2)cc1)C(=O)N[C@@H](C)C(=O)N[C@@H](CCC(N)=O)C(=O)N[C@@H](C)C(=O)N[C@@H](CC(C)C)C(=O)N[C@@H](CCCNC(=N)N)C(=O)N[C@]1(C)CCCCCCC=CCCC[C@@](C)(C(=O)N[C@@H](Cc2ccc(O)cc2)C(=O)N[C@@H](Cc2ccc(O)cc2)C(=O)N[C@@H](C)C(N)=O)NC(=O)[C@H](CC(N)=O)NC(=O)[C@H](Cc2ccccc2)NC(=O)[C@H](C)NC(=O)[C@H](CC(=O)O)NC(=O)CNC(=O)[C@H]([C@@H](C)CC)NC1=O [compound 1686] (Ac-IW[Bip]AQALR[R8]IGDAFN[S5]YYA-NH2; staple 9-16)	11 nM
